In patent US11518777B2, “Inhibitors of the shikimate pathway” (Eberhard Karls Universität Tübingen, priority 2017, dated 2022):

How the values were obtained:
[1] = test system: Legionella; assay type: cell-based; conditions: natural water samples, 37° C., after ten days
[2] = test system: A. thaliana; assay: Germination and seedling size of A. thaliana on agar containing inhibitor; conditions: for root and cotyledons formation: 260 μM (glyphosate equimolar)

| Structure (SMILES) | number of CFUs of Legionella, times lower compared to the control [1] | gravitropism of the seedlings ([2]; 260 μM) | root and cotyledons formation [2] | size of the seedlings ([2]; 260 μM, 7 days of germination) [mm] | size of the seedlings compared to the control ([2]; 260 μM, 7 days of germination) | germination process ([2]; 130-260 μM) | inhibitory capacity on A. thaliana compared to glyphosate (seedling-size and morphological appearance) ([2]; concentrations higher than 130 μM (~25 μg/mL)) | growth inhibitory effects on A. thaliana ([2]; concentrations up to 50 μM, 7 days of germination) |
| --- | --- | --- | --- | --- | --- | --- | --- | --- |
| C[C@@H](O)[C@@H](O)[C@@H](O)[C@H](O)C(=O)CO [7dSh, 7-deoxy-D-altro-heptulose] | 4-5 times lower | impaired in gravitropism | only minor root and cotyledons formation was observed | ~2 | three times lower | came to an arrest within the first days | significant increased inhibitory capacity | comparable to glyphosate |
| O=C(O)CNCP(=O)(O)O [glyphosate, reference compound] | – | – | developed further and showed more distinct root and cotyledons formation | – | – | – | – | – |
